Results on twelve molecules are retold here after patent publication US6875784B2, “Antimibicrobial [3.1.0.] bicyclic oxazolidinone derivatives” (priority 2002, dated 2005).

Common to all, as to format: cell-based
In one experiment the test system is H. influenzae 30063. The experiment is described as follows: MIC by agar dilution, H. influenzae 30063. The source says:
(§1) The in vitro activity of compounds of the subject invention may be assessed by standard testing procedures such as the determination of minimum inhibitory concentration (MIC) by agar dilution as described in “Approved Standard. Methods for Dilution Antimicrobial Susceptibility Tests for Bacteria that Grow Aerobically,” 3rd ed., published 1993 by the National Committee for Clinical Laboratory standards, Villanova, Pa., USA.
(§2) The in vitro MICs of test compounds may be determined by a standard agar dilution method. A stock drug solution of each analog is prepared in a preferred solvent, usually DMSO:H2O (1:3). Serial 2-fold dilutions of each sample are made using 1.0 ml aliquots of sterile distilled water. To each 1.0 ml aliquot of drug is added 9 ml of molten Mueller Hinton agar medium. The drug-supplemented agar is mixed, poured into 15×100 mm petri dishes, and allowed to solidify and dry prior to inoculation.
(§3) Vials of each of the test organisms are maintained frozen in the vapor phase of a liquid nitrogen freezer. Test cultures are grown overnight at 35° C. on the medium appropriate for the organism. Colonies are harvested with a sterile swab, and cell suspensions are prepared in Trypticase Soy broth (TSB) to equal the turbidity of a 0.5 McFarland standard. A 1:20 dilution of each suspension is made in TSB. The plates containing the drug supplemented agar are inoculated with a 0.001 ml drop of the cell suspension using a Steers replicator, yielding approximately 10^4 to 10^5 cells per spot. The plates are incubated overnight at 35° C.
(§4) Following incubation the Minimum Inhibitory Concentration (MIC μg/ml), the lowest concentration of drug that inhibits visible growth of the organism, is read and recorded.
(§5) The in vitro MICs of test compounds were determined by a standard agar dilution method. A stock drug solution of each analog was prepared in the preferred solvent, usually DMSO:H2O (1:3). Serial 2-fold dilutions of each sample are made using 1.0 ml aliquots of sterile distilled water. To each 1.0 ml aliquot of drug was added 9 ml of molten Mueller Hinton agar medium The drug-supplemented agar was mixed, poured into 15×100 mm petri dishes, and allowed to soldify and dry prior to inoculation.
(§6) Vials of each of the test organisms are maintained frozen in the vapor phase of a liquid nitrogen freezer. Test cultures are grown overnight at 35° C. on the medium appropriate for the organism. Colonies are harvested with a sterile swab, and cell suspensions are prepared in Trypticase Soy broth (TSB) to equal the turbidity of a 0.5 McFarland standard. A 1:20 dilution of each suspension was made in TSB. The plates containing the drug supplemented agar are inoculated with a 0.001 ml drop of the cell suspension using a Steers replicator, yielding approximately 10^4 to 10^5 cells per spot. The plates are incubated overnight at 35° C. Following incubation the Minimum Inhibitory Concentration (MIC μg/ml), the lowest concentration of drug that inhibits visible growth of the organism, was read and recorded.
A general note: In agar dilution the substance is mixed into plates at graded concentrations.

A further experiment has as its system S. pneumoniae UC9912. The experiment is described as follows: MIC by agar dilution, S. pneumoniae UC9912. As to conditions: Streptococcus pneumoniae.
Source text: as §1, §2, §3, §4, §5, §6

The test system of another experiment is S. aureus UC9213. The experiment is described as follows: MIC by agar dilution, S. aureus UC9213. The settings on record: Staphylococcus aureus.
Source text: as §1, §2, §3, §4, §5, §6

Setting [1] is: Haemophilus influenzae, 30063, read-out: MIC against H. influenza (30063).
The mark [2] stands for this setting: Haemophilus influenzae, 30063, agar dilution, Mueller Hinton agar, overnight at 35° C., read-out: H. influenzae 30063 MIC.
Where [3] appears, read: UC9912, agar dilution, Mueller Hinton agar, overnight at 35° C., read-out: S. pneumoniae UC9912 MIC.
Setting [4] is: UC9213, agar dilution, Mueller Hinton agar, overnight at 35° C., read-out: S. aureus UC9213 MIC.

Converted amounts (≈) assume the structure as drawn. Read-outs that look alike come from different tables or passages of the source.

Consider `CC(=O)NC[C@H]1CN(c2ccc(N3CCOCC3)c(F)c2)C(=O)O1` [linezolid, reference compound], for which the MIC in the experiment with H. influenzae 30063 (setting [1]) amounted to 16 µg/mL (≈ 47.4 µM); in the experiment on S. pneumoniae UC9912 (UC9912, read-out: MIC against S. pneumoniae (UC 9912)) it was 1 µg/mL (≈ 2.96 µM).

`CC(=O)NC[C@H]1CN(c2ccc(N3CC4NC4C3)c(F)c2)C(=O)O1` (stereo partly shown) [Example 49]: the MIC came to 8 µg/mL (≈ 23.9 µM) in the experiment on H. influenzae 30063 (Haemophilus influenzae, 30063, read-out: H. influenzae 30063 MIC, μg/mL); 0.5 µg/mL (≈ 1.5 µM) in the experiment on S. pneumoniae UC9912 (UC9912, read-out: S. pneumoniae UC9912 MIC, μg/mL); 4 µg/mL (≈ 12 µM) in the experiment on S. aureus UC9213 (UC9213, read-out: S. aureus UC9213 MIC, μg/mL).

Turning to `CC(=O)NC[C@H]1CN(c2cc(F)c(N3CC4OC4C3)c(F)c2)C(=O)O1` (stereo partly shown) [Example 40], the MIC in the experiment with H. influenzae 30063 (setting [2]) stood at 8 µg/mL (≈ 22.6 µM); with S. pneumoniae UC9912 (setting [3]), 0.5 µg/mL (≈ 1.42 µM); in the experiment on S. aureus UC9213 (setting [4]), 1 µg/mL (≈ 2.83 µM).

Regarding `CC(=O)NC[C@H]1CN(c2cc(F)c(N3C[C@@H]4[C@H](C3)[C@H]4C(=O)N(C)C)c(F)c2)C(=O)O1` [Example 3], the MIC in the experiment with H. influenzae 30063 (setting [1]) is above 64 µg/mL.

Take `CC(=O)NC[C@H]1CN(c2ccc(N3CC4C(C3)N4C(C)=O)c(F)c2)C(=O)O1` (stereo partly drawn) [Example 50, N-({(5S)-3-[4-(6-acetyl-3,6-diazabicyclo[3.1.0]hex-3-yl)-3-fluorophenyl]-2-oxo-1,3-oxazolidin-5-yl]methyl)acetamide]: the MIC with H. influenzae 30063 (setting [2]) was 64 µg/mL (≈ 170 µM); in the experiment on S. pneumoniae UC9912 (setting [3]), 2 µg/mL (≈ 5.31 µM); with S. aureus UC9213 (setting [4]), 8 µg/mL (≈ 21.3 µM).

On to `COC(=O)[C@H]1[C@@H]2CN(c3c(F)cc(N4C[C@H](CNC(=O)C(F)F)OC4=O)cc3F)C[C@@H]21` [Example 16, methyl exo-(1R,5S)-3-[4-((5S)-5-{[(difluoroacetyl)amino]methyl}-2-oxo-1,3-oxazolidin-3-yl)-2,6-difluorophenyl]-3-azabicyclo[3.1.0]hexane-6-carboxylate], for which, in the experiment on H. influenzae 30063 (setting [1]), the MIC was above 64 µg/mL.

Take `CCN(CC)C(=O)COC(=O)[C@H]1[C@@H]2CN(c3c(F)cc(N4C[C@H](CNC(=O)C(Cl)Cl)OC4=O)cc3F)C[C@@H]21` [Example 13, 2-(diethylamino)-2-oxoethyl exo-(1R,5S)-3-[4-((5S)-5-{[(dichloroacetyl)amino]methyl}-2-oxo-1,3-oxazolidin-3-yl)-2,6-difluorophenyl]-3-azabicyclo[3.1.0]hexane-6-carboxylate]: the MIC in the experiment on H. influenzae 30063 (setting [1]) was above 64 µg/mL.

As to `CCC(=O)NC[C@H]1CN(c2cc(F)c(N3CC4OC4C3)c(F)c2)C(=O)O1` (stereo partly drawn) [Example 41, N-({(5S)-3-[3,5-difluoro-4-(6-oxa-3-azabicyclo[3.1.0]hex-3-yl)phenyl]-2-oxo-1,3-oxazolidin-5-yl}methyl)propanamide], the MIC in the experiment on H. influenzae 30063 (setting [2]) is 16 µg/mL (≈ 43.6 µM); in the experiment on S. pneumoniae UC9912 (setting [3]) it was 0.5 µg/mL (≈ 1.36 µM); with S. aureus UC9213 (setting [4]), 2 µg/mL (≈ 5.44 µM).

Turning to `CC(=O)NC[C@H]1CN(c2ccc(N3CC4C(C3)N4C(=O)COC(C)=O)c(F)c2)C(=O)O1` (stereo partly drawn) [Example 52, 2-[3-(4-(5S)-5-[(acetylamino)methyl]-2-oxo-1,3-oxazolidin-3-yl}2-fluorophenyl)-3,6-diazabicyclo[3.1.0]hex-6-yl]-2-oxoethyl acetate], the MIC in the experiment with H. influenzae 30063 (setting [2]) was determined as 32 µg/mL; in the experiment on S. pneumoniae UC9912 (setting [3]), 1 µg/mL; in the experiment on S. aureus UC9213 (setting [4]) it was 1 µg/mL.

Regarding `CCN(CC)C(=O)COC(=O)[C@H]1[C@@H]2CN(c3c(F)cc(N4C[C@H](CNC(=O)C(F)F)OC4=O)cc3F)C[C@@H]21` [Example 17], the MIC in the experiment with H. influenzae 30063 (setting [1]) is above 64 µg/mL.

With `COCC(=O)N1C2CN(c3ccc(N4C[C@H](CNC(C)=O)OC4=O)cc3F)CC21` (stereo partly drawn) [Example 51, N-({(5S)-3-[4-(6-methoxyacetyl-3,6-diazabicyclo[3.1.0]hex-3-yl)-3-fluorophenyl]-2-oxo-1,3-oxazolidin-5-yl}methyl)acetamide], the MIC in the experiment on H. influenzae 30063 (setting [2]) came out at 32 µg/mL (≈ 78.7 µM); with S. pneumoniae UC9912 (setting [3]), 2 µg/mL (≈ 4.92 µM); in the experiment with S. aureus UC9213 (setting [4]) it was 8 µg/mL (≈ 19.7 µM).

In the case of `CC(=O)NC[C@H]1CN(c2cc(F)c(N3C[C@@H]4[C@H](C3)[C@H]4NC(=O)Nc3ccccc3)c(F)c2)C(=O)O1` [Example 28, N-{[(5S)-3-(4-{exo-(1R,5S)-6-[(anilinocarbonyl)amino]-3-azabicyclo[3.1.0]hex-3-yl}-3,5-difluorophenyl)-2-oxo-1,3-oxazolidin-5-yl]methyl}acetamide], the MIC in the experiment on H. influenzae 30063 (setting [1]) was above 64 µg/mL.
